In the assay the target is human A2A receptor (A2AR) (Homo sapiens, UniProt P29274). Put plainly: Luciferase reporter assay (HEK293-A2AR-luc2p/CRE/Hygro cells, 3 nM CGS21680). As to conditions: 3 nM CGS21680, 5 h incubation. The class given is cell-based. Summed up:
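Antagonist (0.1–10000 nM) and 3 nM CGS21680 were co-added for 5 h to stable HEK293-A2AR-luc2p/CRE cells, 18 h after seeding in 1% FBS medium containing adenosine deaminase. Luminescence was normalized to agonist alone (100%), and IC50 came from the dose–inhibition curve.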
On the technique in general: In a reporter assay the amount or activity of a reporter protein is the signal.

Drawing on US20210300936A1, “PYRAZOLOTRIAZOLOPYRIMIDINE DERIVATIVES AS A2A RECEPTOR ANTAGONIST” (BEIGENE, LTD., priority 2018, published 2021), this text covers IC50 for 18 compounds.

By IC50 is commonly meant the concentration at which inhibition is half-maximal. A high value points to a need for much substance.

Chain of human A2A receptor (A2AR) (P29274 whole entry): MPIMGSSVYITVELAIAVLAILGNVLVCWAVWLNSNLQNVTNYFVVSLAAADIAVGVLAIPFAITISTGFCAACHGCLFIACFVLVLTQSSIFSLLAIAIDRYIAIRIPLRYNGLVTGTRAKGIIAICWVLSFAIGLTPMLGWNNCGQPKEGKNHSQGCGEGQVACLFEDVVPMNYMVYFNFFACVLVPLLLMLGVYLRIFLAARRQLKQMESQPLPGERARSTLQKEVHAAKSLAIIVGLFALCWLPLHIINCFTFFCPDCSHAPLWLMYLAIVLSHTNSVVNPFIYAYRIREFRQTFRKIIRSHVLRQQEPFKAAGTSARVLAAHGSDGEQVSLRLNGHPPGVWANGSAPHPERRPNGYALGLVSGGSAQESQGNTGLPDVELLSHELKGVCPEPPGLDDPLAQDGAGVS

The compound `COCCOc1ccc(N2CC(C)N(C(=O)C(c3ccccc3)n3ncc4c3nc(N)n3nc(-c5ccco5)nc43)C(C)C2)cc1` (stereo not drawn) [Compound A59, 2-(5-amino-2-(furan-2-yl)-7H-pyrazolo[4,3-e][1,2,4]triazolo[1,5-c]pyrimidin-7-yl)-1-(4-(4-(2-methoxyethoxy)phenyl)-2,6-dimethylpiperazin-1-yl)-2-phenylethan-1-one] showed an IC50 of 18.4 nM. This lies in the double-digit nanomolar range.
In turn, `COCCOCCOc1ccc(N2CCN(C(=O)C(C)(C)n3cc4c(nc(N)n5nc(-c6ccco6)nc45)n3)CC2)cc1` [Compound C6, 2-(5-amino-2-(furan-2-yl)-8H-pyrazolo[4,3-e][1,2,4]triazolo[1,5-c]pyrimidin-8-yl)-1-(4-(4-(2-(2-methoxyethoxy)ethoxy)phenyl)piperazin-1-yl)-2-methylpropan-1-one] yielded a half-maximal inhibitory concentration (IC50) of 3180 nM.
Next, `CCCC(C(=O)N1CCN(c2ccc(OCCOC)cc2)CC1)n1cc2c(nc(N)n3nc(-c4ccco4)nc23)n1` (single isomer, unassigned) [Compound C5b]: 209 nM; `COCCOc1ccc(N2CCN(C(=O)C(C)(c3ccccc3F)n3ncc4c3nc(N)n3nc(-c5ccco5)nc43)CC2)cc1` (stereo not drawn) [Compound A87, 2-(5-amino-2-(furan-2-yl)-7H-pyrazolo[4,3-e][1,2,4]triazolo[1,5-c]pyrimidin-7-yl)-2-(2-fluorophenyl)-1-(4-(4-(2-methoxyethoxy)phenyl)piperazin-1-yl)propan-1-one]: 2 nM; `COCCOc1ccc(N2CCN(C(=O)C(C)(c3ccccc3)n3ncc4c3nc(N)n3nc(-c5ccco5)nc43)CC2)c(F)c1` (stereo not drawn) [Compound A64, 2-(5-amino-2-(furan-2-yl)-7H-pyrazolo[4,3-e][1,2,4]triazolo[1,5-c]pyrimidin-7-yl)-1-(4-(2-fluoro-4-(2-methoxyethoxy)phenyl)piperazin-1-yl)-2-phenylpropan-1-one]: 4.8 nM.
Compound `COCCOc1ccc(N2CCN(C(=O)C(CC(C)C)n3cc4c(nc(N)n5nc(-c6ccco6)nc45)n3)CC2)cc1` (stereo not drawn) [Compound C17, 2-(5-amino-2-(furan-2-yl)-8H-pyrazolo[4,3-e][1,2,4]triazolo[1,5-c]pyrimidin-8-yl)-1-(4-(4-(2-methoxyethoxy)phenyl)piperazin-1-yl)-4-methylpentan-1-one] came in with an IC50 of 88.4 nM. Compared with the last compound, the IC50 is about 18-fold higher.
In turn, `C[C@@](C(=O)N1CCN(c2ccc(OCCCN3CCCC3)cc2)CC1)(c1ccccc1)n1ncc2c1nc(N)n1nc(-c3ccco3)nc21` [Compound A79a, (S)-2-(5-amino-2-(furan-2-yl)-7H-pyrazolo[4,3-e][1,2,4]triazolo[1,5-c]pyrimidin-7-yl)-2-phenyl-1-(4-(4-(3-(pyrrolidin-1-yl)propoxy)phenyl)piperazin-1-yl)propan-1-one] returned an IC50 of 21.4 nM.
`Nc1nc2c(cnn2C(C(=O)N2CCc3ccc(Cl)cc3C2)c2ccccc2)c2nc(-c3ccco3)nn12` (stereo not drawn) [Compound B5, 2-(5-amino-2-(furan-2-yl)-7H-pyrazolo[4,3-e][1,2,4]triazolo[1,5-c]pyrimidin-7-yl)-1-(7-chloro-3,4-dihydroisoquinolin-2(1H)-yl)-2-phenylethan-1-one] gave a half-maximal inhibitory concentration (IC50) of 3 nM.
`CN(C)C(=O)c1cccc(N2CCN(C(=O)C(C)(c3ccccc3)n3ncc4c3nc(N)n3nc(-c5ccco5)nc43)CC2)c1` (stereo not drawn) [Compound A88, 3-(4-(2-(5-amino-2-(furan-2-yl)-7H-pyrazolo[4,3-e][1,2,4]triazolo[1,5-c]pyrimidin-7-yl)-2-phenylpropanoyl)piperazin-1-yl)-N,N-dimethylbenzamide] came in with an IC50 of 7 nM.
Consider `CC(C(=O)N1CCN(c2ccc(C(=O)NCC3(O)COC3)cc2)CC1)(c1ccccc1)n1ncc2c1nc(N)n1nc(-c3ccco3)nc21` (stereo not drawn) [Compound A83, 4-(4-(2-(5-amino-2-(furan-2-yl)-7H-pyrazolo[4,3-e][1,2,4]triazolo[1,5-c]pyrimidin-7-yl)-2-phenylpropanoyl)piperazin-1-yl)-N-((3-hydroxyoxetan-3-yl)methyl)benzamide], for which the IC50 turned out to be 3.7 nM.
In the case of `CCCC(C(=O)N1CCN(c2ccc(OCCOC)c(F)c2F)CC1)n1ncc2c1nc(N)n1nc(-c3ccco3)nc21` (stereo not drawn) [Compound A51, 2-(5-amino-2-(furan-2-yl)-7H-pyrazolo[4,3-e][1,2,4]triazolo[1,5-c]pyrimidin-7-yl)-1-(4-(2,3-difluoro-4-(2-methoxyethoxy)phenyl)piperazin-1-yl)pentan-1-one], half-maximal inhibition (IC50) required 4.8 nM. This IC50 and that of the compound before are within 1.5-fold of each other.
`CN1CCN(CCOc2ccc(N3CCN(C(=O)[C@@](C)(c4ccccc4)n4ncc5c4nc(N)n4nc(-c6ccco6)nc54)CC3)cc2)CC1` [Compound A81b, (R)-2-(5-amino-2-(furan-2-yl)-7H-pyrazolo[4,3-e][1,2,4]triazolo[1,5-c]pyrimidin-7-yl)-1-(4-(4-(2-(4-methylpiperazin-1-yl)ethoxy)phenyl)piperazin-1-yl)-2-phenylpropan-1-one] had a half-inhibitory concentration (IC50) of 2.6 nM.
On to `C[C@](C(=O)N1CCN(c2ccc(OCCCN3CCCC3)cc2)CC1)(c1ccccc1)n1ncc2c1nc(N)n1nc(-c3ccco3)nc21` [Compound A79b, (R)-2-(5-amino-2-(furan-2-yl)-7H-pyrazolo[4,3-e][1,2,4]triazolo[1,5-c]pyrimidin-7-yl)-2-phenyl-1-(4-(4-(3-(pyrrolidin-1-yl)propoxy)phenyl)piperazin-1-yl)propan-1-one], for which 6.8 nM corresponded to half-maximal inhibition (IC50).
Next, `CN1CCN(CCOc2ccc(N3CCN(C(=O)C(C)(c4ccccc4)n4ncc5c4nc(N)n4nc(-c6ccco6)nc54)CC3)cc2)CC1` (stereo not drawn) [Compound A81, 2-(5-amino-2-(furan-2-yl)-7H-pyrazolo[4,3-e][1,2,4]triazolo[1,5-c]pyrimidin-7-yl)-1-(4-(4-(2-(4-methylpiperazin-1-yl)ethoxy)phenyl)piperazin-1-yl)-2-phenylpropan-1-one]: 4.7 nM; `CC(C(=O)N1CCN(c2ccc(F)cc2)CC1)(c1ccccc1)n1ncc2c1nc(N)n1nc(-c3ccco3)nc21` (stereo not drawn) [Compound A70, 2-(5-amino-2-(furan-2-yl)-7H-pyrazolo[4,3-e][1,2,4]triazolo[1,5-c]pyrimidin-7-yl)-1-(4-(4-fluorophenyl)piperazin-1-yl)-2-phenylpropan-1-one]: 5 nM; `CCCCC(C(=O)N1CCN(c2ccc(OCCN(C)C)cc2)CC1)n1ncc2c1nc(N)n1nc(-c3ccco3)nc21` (stereo not drawn) [Compound A32, 2-(5-amino-2-(furan-2-yl)-7H-pyrazolo[4,3-e][1,2,4]triazolo[1,5-c]pyrimidin-7-yl)-1-(4-(4-(2-(dimethylamino)ethoxy)phenyl)piperazin-1-yl)hexan-1-one]: 7.2 nM.
On to `COCCOc1ccc(N2CCN(C(=O)C(C(C)C)n3ncc4c3nc(N)n3nc(-c5ccco5)nc43)CC2)cc1` (stereo not drawn) [Compound A2, 2-(5-amino-2-(furan-2-yl)-7H-pyrazolo[4,3-e][1,2,4]Triazolo[1,5-c]pyrimidin-7-yl)-1-(4-(4-(2-methoxyethoxy)phenyl)piperazin-1-yl)-3-methylbutan-1-one], for which half-maximal inhibition (IC50) required 96.9 nM.
Compound `CCCCC(C(=O)N1CCN(c2ccc(OCCNC)cc2)CC1)n1ncc2c1nc(N)n1nc(-c3ccco3)nc21` (stereo not drawn) [Compound A35, 2-(5-amino-2-(furan-2-yl)-7H-pyrazolo[4,3-e][1,2,4]triazolo[1,5-c]pyrimidin-7-yl)-1-(4-(4-(2-(methylamino)ethoxy)phenyl)piperazin-1-yl)hexan-1-one] had a concentration for half-maximal inhibition (IC50) of 5.8 nM.
